According to US20250372228A1, “METHOD AND SYSTEM FOR D[…] PHARMACOKINETIC MODEL OF PROPOFOL AND DERIVATIVE THEREOF” (Xizang Haisco Pharmaceutical Co., Ltd., priority 2020, published 2025):
Read-outs that look alike come from different tables or passages of the source.

Tests used:
[1] = system: γ-aminobutyric acid type A (GABAA) receptor; test: Potency compared with propofol (background statement)
[2] = Free drug concentration in the aqueous phase by ultrafiltration method; type: physicochemical; conditions: same conditions and concentrations, compared with propofol (Jingan®)
Excerpt: Propofol derivative injectable emulsion (hereinafter referred to as propofol derivative, with a chemical name of 2-[(1R)-1-cyclopropylethyl]-6-isopropyl-phenol), which is developed by Sichuan Haisco Pharmaceutical Co., Ltd. as a novel intravenous anesthetic with independent intellectual property rights, is intended to be used for sedation/anesthesia in various diagnostic examinations or treatments, induction and maintenance of general anesthesia, and sedation (ICU sedation) of intensive care subjects under mechanical ventilation. The propofol derivative, as the active ingredient, is a chemical entity similar to propofol, and is a single […] with two chiral centers of R-configuration. […] The main action mechanism of the propofol derivative is to allow for the inflow of chloride ions by enhancing an ion channel mediated by a γ-aminobutyric acid type A (GABAA) receptor, thereby achieving the inhibition of the nervous centralis. The channel is also a main target where propofol exerts its effects. The propofol derivative has the pharmacodynamic characteristics of fast onset of action and stable and rapid recovery.

[3] = Population pharmacokinetic (PopPK) three-compartment model of the propofol derivative from clinical trial plasma concentrations; type: in vivo, human; conditions: for Intercompartmental clearance between the central compartment and the peripheral compartment 1, Q2: exp(θ3); for Volume of distribution in the peripheral compartment 1, V2: exp(θ4); for Clearance between the central compartment and the peripheral compartment 2, Q3: exp(θ5); for Volume of distribution in the peripheral compartment 2, V3: exp(θ6); for relative median change of CL by total protein: total protein range not given; for Residual of venous blood collection (%): σ1; for Residual of arterial blood collection (%): σ2; for Interindividual variation of clearance, CL %: ωCL; for Interindividual variation of intercompartmental clearance between the central compartment and the peripheral compartment 1, Q2%: ωQ2; for Interindividual variation of intercompartmental clearance between the central compartment and the peripheral compartment 2, Q3%: ωQ3; for Interindividual variation of volume of distribution in the central compartment, V1%: ωV1; for Interindividual variation of volume of distribution in the peripheral compartment 2, V3%: ωV3
Excerpt: The original data set comprises 2609 measurable plasma drug concentration data from 219 subjects (wherein 81 people receive both arterial and venous blood collection, and subjects receiving another blood collecting method are regarded as new individuals, that is, 300 individuals are included in the population analysis).
By using a stepwise backward elimination method, no influence factors are eliminated (Δ−2LL>10.83).

[4] = for Volume of distribution in the peripheral compartment 2, V3: exp(6); for Volume of distribution in the peripheral compartment 2, V3 / Clearance between the central compartment and the peripheral compartment 2, Q3: parameter fixed (FIX); for Intercompartmental clearance between the central compartment and the peripheral compartment 1, Q2: exp(θ3); for Volume of distribution in the peripheral compartment 1, V2: exp(θ4); for Clearance between the central compartment and the peripheral compartment 2, Q3: exp(θ5); for Residual (%): σ1; for Clearance, CL %: ωCL (interindividual variation); for Volume of distribution in the central compartment, V1%: ωV1 (interindividual variation)
Protocol: (§1) A pharmacokinetic data set included in the analysis are determined by evaluating the clinical trial data included: • plasma drug concentration data: acquired by means of implementation of the sampling scheme (see FIG. 8); • baseline demographic characteristic data: race, age, height, weight and gender; • blood biochemical index data: blood total protein content, creatinine clearance, glutamic-oxalacetic transaminase and glutamic-pyruvic transaminase; and • blood collection sites.
(§2) Establishing the preliminary foundation model on the basis of the data processed in step 3 comprising: • (1) describing interindividual variation of the PK parameters by using the following equation:
(§3) Establishing the final foundation model on the basis of the preliminary foundation model in step 4 comprising: • (1) determining covariates included in the evaluation on the basis of clinical knowledge and a drug action mechanism: • baseline demographic characteristic covariates: baseline values for age, gender, weight and race; • blood biochemical index covariates: creatinine clearance, total protein, glutamic-oxalacetic transaminase, glutamic-pyruvic transaminase, alkaline phosphatase and total bilirubin; and • blood collection sites. • (2) establishing a final population pharmacokinetic foundation model on the basis of the covariates included in the evaluation.
(§4) Establishing the population pharmacokinetic model by adding the screened covariates on the basis of the final foundation model in step 5 comprising: • (1) Pre-screening of covariates: • analyzing the correlation between the continuous covariates and the PK parameters by using the following equation:

clinical = conditions: human, plasma, intravenous; for clearance: CL, exp(θ1); for Vd: Volume of distribution in the central compartment, V1, exp(θ2)
Protocol: as §1, §2, §3, §4

[5] = median of Bootstrap (2.5th to 97.5th percentiles)
[6] = typical value of final population model (95% CI)
[7] = typical value of final population model

## CC(C)c1cccc([C@H](C)C2CC2)c1O [propofol derivative, 2-[(1R)-1-cyclopropylethyl]-6-isopropyl-phenol]
[1]
  potency relative to propofol: 4-5 times
[2]
  free drug concentration in the aqueous phase: lower free drug concentration in the aqueous phase
[3]; age 19.8 to 53 years old, propofol derivative-302 trial
  influence of age on AUC0-24: no influence
[3]; age 19.8 to 53 years old, propofol derivative-302 trial, expected to be clinically insignificant
  influence of age on Cmax: has an influence
[3]; exp(θ1), median of Bootstrap (2.5th to 97.5th percentiles)
  Clearance, CL: 66.4 (63.7 to 69.4) L/hr
[3]; exp(θ2), median of Bootstrap (2.5th to 97.5th percentiles)
  Volume of distribution in the central compartment, V1: 2.48 (2.27 to 2.74) L
[3]; [5]
  Intercompartmental clearance between the central compartment and the peripheral compartment 1, Q2: 57.9 (51.5 to 65.6) L/hr
  Volume of distribution in the peripheral compartment 1, V2: 5.74 (5.07 to 6.7) L
  Clearance between the central compartment and the peripheral compartment 2, Q3: 59.1 (54.6 to 63.6) L/hr
  Volume of distribution in the peripheral compartment 2, V3: 78.4 (73 to 83.9) L
  Residual of venous blood collection (%): 30.5 (26.3 to 34.6) %
  Residual of arterial blood collection (%): 16.9 (15.7 to 18.2) %
  Interindividual variation of clearance, CL %: 14.3 (11.9 to 17) %
  Interindividual variation of intercompartmental clearance between the central compartment and the peripheral compartment 1, Q2%: 29.0 (23.1 to 35.5) %
  Interindividual variation of intercompartmental clearance between the central compartment and the peripheral compartment 2, Q3%: 28.8 (22.8 to 36.3) %
  Interindividual variation of volume of distribution in the central compartment, V1%: 40.4 (27.7 to 54.5) %
  Interindividual variation of volume of distribution in the peripheral compartment 2, V3%: 30.5 (25.3 to 35.7) %
[3]; [6]
  Intercompartmental clearance between the central compartment and the peripheral compartment 1, Q2: 58 (50.8 to 65.1) L/hr
  Volume of distribution in the peripheral compartment 1, V2: 5.77 (4.96 to 6.58) L
  Clearance between the central compartment and the peripheral compartment 2, Q3: 59.0 (54.5 to 63.5) L/hr
  Volume of distribution in the peripheral compartment 2, V3: 78.3 (72.8 to 83.8) L
  Residual of venous blood collection (%): 30.6 (26.6 to 34.5) %
  Residual of arterial blood collection (%): 16.9 (15.8 to 18.1) %
  Interindividual variation of clearance, CL %: 14.5 (12 to 16.9) %
  Interindividual variation of intercompartmental clearance between the central compartment and the peripheral compartment 1, Q2%: 28.9 (23.1 to 34.7) %
  Interindividual variation of intercompartmental clearance between the central compartment and the peripheral compartment 2, Q3%: 29.1 (23.1 to 35.1) %
  Interindividual variation of volume of distribution in the central compartment, V1%: 41.4 (28 to 54.9) %
  Interindividual variation of volume of distribution in the peripheral compartment 2, V3%: 30.7 (25.6 to 35.8) %
[3]; first value of the pair
  relative median change of CL by total protein: 6.8%
[3]; human, plasma, intravenous, exp(θ1), typical value of final population model (95% CI), read-out: Clearance, CL (converted)
  clearance: 1110 mL/min
[3]; human, plasma, intravenous, exp(θ2), typical value of final population model (95% CI), read-out: Volume of distribution in the central compartment, V1
  Vd: 2.48 L
[3]; second value of the pair
  relative median change of CL by total protein: −6.3%
[3]; weight 45 kg (lower end of range 45 kg to 90 kg)
  relative median change of CL by weight: −11.6%
[3]; weight 90 kg (upper end of range 45 kg to 90 kg)
  relative median change of CL by weight: 12.7%

## CC(C)c1cccc(C(C)C)c1O [propofol]
[4]; covariate screening, forward and backward method
  influence of covariates on the pharmacokinetic parameters: not found that covariates have a significant influence
[4]; Bootstrap column
  Volume of distribution in the peripheral compartment 2, V3: 262, FIX(—) L
  Clearance between the central compartment and the peripheral compartment 2, Q3: 48.6, FIX(—) L/hr
[4]; [7]
  Volume of distribution in the peripheral compartment 2, V3: 262, FIX(—) L
  Clearance between the central compartment and the peripheral compartment 2, Q3: 48.6, FIX(—) L/hr
[4]; [5]
  Intercompartmental clearance between the central compartment and the peripheral compartment 1, Q2: 132 (13.0 to 200) L/hr
  Volume of distribution in the peripheral compartment 1, V2: 35.6 (1.64 to 53.3) L
  Residual (%): 17.1 (11 to 23.1) %
  Clearance, CL %: 22.5 (13.6 to 30.6) %
  Volume of distribution in the central compartment, V1%: 32.4 (6.02 to 49.5) %
[4]; [6]
  Intercompartmental clearance between the central compartment and the peripheral compartment 1, Q2: 142 (88.4 to 196) L/hr
  Volume of distribution in the peripheral compartment 1, V2: 37.6 (25.2 to 50.0) L
  Residual (%): 19.2 (12.7 to 25.7) %
  Clearance, CL %: 23.0 (14.8 to 31.1) %
  Volume of distribution in the central compartment, V1%: 30.5 (8.11 to 52.9) %
clinical; [5]
  clearance: 1530 mL/min
  Vd: 8.92 L
clinical; [6]
  clearance: 1590 mL/min
  Vd: 9.46 L
